Where a SMILES comes first, the peptide text is derived from it. Bridges are numbered along the chain shown (N, C = ends). Where no end group is shown, it is not given here.
What was measured:
[1] = in vivo; conditions: male, SD, rat, iv, 10 nmol/kg
Description: The experiment was carried out using rats into which polyethylene tube (PE-50 manufactured by Clay Adams) was previously inserted into thigh artery under an anesthetized condition with Nembutal. As to a test system, male SD strain rats (Nippon Charles River) of 7 weeks age were used where one group comprised 3 rats. Native CNP-22 or chimeric CNP in a dose of 10 nmol/kg was administered into tail vein of the rat and the blood before the administration and until 60 minutes after the administration was collected by a polyethylene tube inserted into the thigh artery. To the collected blood were added EDTA (manufactured by Dojin Laboratories) and aprotinin (manufactured by Bayer) as a stabilizer and an anti-coagulant, respectively and the plasma was separated therefrom by centrifugal separation. CNP immunoreactivity concentration in plasma was measured by a competitive radioimmunoassay (RIA). At that time, a rabbit polyclonal antibody (#2) which specifically recognizes the ring partial structure of the native CNP-22 was used as an antibody and, as a labeled compound, ^125I-[Tyr^0] CNP was used.

[2] = Motilin immunoreactivity concentration in plasma, half-life after intravenous administration (Example 8); conditions: SD, rat, in vivo, 10 nmol/kg
Method in brief: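 Male SD rats (7 weeks, n=3/group) received human motilin or derivative at 10 nmol/kg i.v. via tail vein; arterial blood was sampled up to 60 min, with EDTA and aprotinin added. Plasma motilin immunoreactivity was measured by competitive RIA using a rabbit polyclonal antibody against native motilin residues 1–12 and ^125I-[Tyr^7] human motilin tracer.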

[3] = Motilin immunoreactivity concentration in plasma, half-life after intravenous administration (Example 6); format: in vivo, rat; conditions: for half-life: SD, rat, plasma, 10 nmol/kg, male rats, N = 3, read-out: T½ Mean Value; for disappearance half-time extending action in vivo compared with native motilin: rats
Description: The experiment was carried out using rats into which polyethylene tube (PE-50 manufactured by Clay Adams) was previously inserted into thigh artery under an anesthetized condition with Nembutal. As to a test system, male SD strain rats (Nippon Charles River) of 7 weeks age were used where one group comprised 3 rats. Human type motilin or a derivative thereof in a dose of 10 nmol/kg was administered into tail vein of the rat and the blood before the administration and until 60 minutes after the administration was collected by a polyethylene tube inserted into the thigh artery. To the collected blood were added EDTA (manufactured by Dojin Laboratories) and aprotinin (manufactured by Bayer) as a stabilizer and an anti-coagulant, respectively and the plasma was separated therefrom by centrifugal separation.

| Compound | half-life [1] | half-life [3] | also measured |
| --- | --- | --- | --- |
| CC[C@H](C)[C@@H]1NC(=O)[C@H](CCCNC(=N)N)NC(=O)[C@H](CC(=O)O)NC(=O)[C@H](CC(C)C)NC(=O)[C@H](CCCCN)NC(=O)[C@H](CC(C)C)NC(=O)CNC(=O)[C@H](Cc2ccccc2)NC(=O)[C@@H](N)CSSC[C@@H](C(=O)N[C@H](C(=O)N[C@@H](CCC(N)=O)C(=O)N[C@@H](CCC(N)=O)C(=O)N[C@@H](CCCNC(=N)N)C(=O)N[C@@H](CCCCN)C(=O)N[C@@H](CCC(=O)O)C(=O)N[C@@H](CO)C(=O)N[C@@H](CCCCN)C(=O)N[C@@H](CCCCN)C(=O)N2CCC[C@H]2C(=O)N2CCC[C@H]2C(=O)N[C@@H](C)C(=O)N[C@@H](CCCCN)C(=O)N[C@@H](CC(C)C)C(=O)N[C@@H](CCC(N)=O)C(=O)N2CCC[C@H]2C(=O)N[C@@H](CCCNC(=N)N)C(=O)O)C(C)C)NC(=O)CNC(=O)[C@H](CC(C)C)NC(=O)CNC(=O)[C@H](CO)NC(=O)[C@H](CCSC)NC(=O)[C@H](CO)NC(=O)CNC1=O [Chimeric CNP (C)] (H-CFGLKLDRIGSMSGLGCVQQRKESKKPPAKLQPR-OH; disulfide 1-17; N-terminus and C-terminus assumed) | 15 min | – | – |
| CC[C@H](C)[C@@H]1NC(=O)[C@H](CCCNC(=N)N)NC(=O)[C@H](CC(=O)O)NC(=O)[C@H](CC(C)C)NC(=O)[C@H](CCCCN)NC(=O)[C@H](CC(C)C)NC(=O)CNC(=O)[C@H](Cc2ccccc2)NC(=O)[C@@H](NC(=O)[C@H](CCCNC(=N)N)NC(=O)[C@@H]2CCCN2C(=O)[C@H](CCC(N)=O)NC(=O)[C@H](CC(C)C)NC(=O)[C@H](CCCCN)NC(=O)[C@H](C)NC(=O)[C@@H]2CCCN2C(=O)[C@@H]2CCCN2C(=O)[C@H](CCCCN)NC(=O)[C@H](CCCCN)NC(=O)[C@H](CO)NC(=O)[C@H](CCC(=O)O)NC(=O)[C@H](CCCCN)NC(=O)[C@H](CCCNC(=N)N)NC(=O)[C@H](CCC(N)=O)NC(=O)[C@H](CCC(N)=O)NC(=O)[C@@H](N)C(C)C)CSSC[C@@H](C(=O)O)NC(=O)CNC(=O)[C@H](CC(C)C)NC(=O)CNC(=O)[C@H](CO)NC(=O)[C@H](CCSC)NC(=O)[C@H](CO)NC(=O)CNC1=O [Chimeric CNP (G)] (H-VQQRKESKKPPAKLQPRCFGLKLDRIGSMSGLGC-OH; disulfide 18-34; N-terminus and C-terminus assumed) | 17.8 min | – | – |
| CC[C@H](C)[C@@H]1NC(=O)[C@H](CCCNC(=N)N)NC(=O)[C@H](CC(=O)O)NC(=O)[C@H](CC(C)C)NC(=O)[C@H](CCCCN)NC(=O)[C@H](CC(C)C)NC(=O)CNC(=O)[C@H](Cc2ccccc2)NC(=O)[C@@H](NC(=O)[C@@H](NC(=O)[C@H](CCC(N)=O)NC(=O)[C@H](CCC(N)=O)NC(=O)[C@H](CCCNC(=N)N)NC(=O)[C@H](CCCCN)NC(=O)[C@H](CCC(=O)O)NC(=O)[C@H](CO)NC(=O)[C@H](CCCCN)NC(=O)[C@H](CCCCN)NC(=O)[C@@H]2CCCN2C(=O)[C@@H]2CCCN2C(=O)[C@H](C)NC(=O)[C@H](CCCCN)NC(=O)[C@H](CC(C)C)NC(=O)[C@H](CCC(N)=O)NC(=O)[C@@H]2CCCN2C(=O)[C@@H](N)CCCNC(=N)N)C(C)C)CSSC[C@@H](C(=O)O)NC(=O)CNC(=O)[C@H](CC(C)C)NC(=O)CNC(=O)[C@H](CO)NC(=O)[C@H](CCSC)NC(=O)[C@H](CO)NC(=O)CNC1=O [Chimeric CNP (H)] (H-RPQLKAPPKKSEKRQQVCFGLKLDRIGSMSGLGC-OH; disulfide 18-34; N-terminus and C-terminus assumed) | 14.9 min | – | – |
| CC[C@H](C)[C@@H]1NC(=O)[C@H](CCCNC(=N)N)NC(=O)[C@H](CC(=O)O)NC(=O)[C@H](CC(C)C)NC(=O)[C@H](CCCCN)NC(=O)[C@H](CC(C)C)NC(=O)CNC(=O)[C@H](Cc2ccccc2)NC(=O)[C@@H](N)CSSC[C@@H](C(=O)N[C@H](C(=O)N[C@@H](CCC(N)=O)C(=O)N[C@@H](CCC(N)=O)C(=O)N[C@@H](CCCNC(=N)N)C(=O)N[C@@H](CCCCN)C(=O)N[C@@H](CCC(=O)O)C(=O)N[C@@H](CO)C(=O)N[C@@H](CCCCN)C(=O)N[C@@H](CCCCN)C(=O)N2CCC[C@H]2C(=O)N2CCC[C@H]2C(=O)N[C@@H](C)C(=O)N[C@@H](CCCCN)C(=O)N[C@@H](CC(C)C)C(=O)N[C@@H](CCC(N)=O)C(=O)N2CCC[C@H]2C(=O)N[C@@H](CCCNC(=N)N)C(N)=O)C(C)C)NC(=O)CNC(=O)[C@H](CC(C)C)NC(=O)CNC(=O)[C@H](CO)NC(=O)[C@H](CCSC)NC(=O)[C@H](CO)NC(=O)CNC1=O [Chimeric CNP (I)] (H-CFGLKLDRIGSMSGLGCVQQRKESKKPPAKLQPR-NH2; disulfide 1-17; N-terminus assumed) | 14.5 min | – | – |
| CC[C@H](C)[C@H](NC(=O)[C@@H]1CCCN1C(=O)[C@@H](NC(=O)[C@@H](N)Cc1ccccc1)C(C)C)C(=O)N[C@@H](Cc1ccccc1)C(=O)N[C@H](C(=O)N[C@@H](Cc1ccc(O)cc1)C(=O)NCC(=O)N[C@@H](CCC(=O)O)C(=O)N[C@@H](CC(C)C)C(=O)N[C@@H](CCC(N)=O)C(=O)N[C@@H](CCCNC(=N)N)C(=O)N[C@H](C(=O)N[C@@H](CCC(N)=O)C(=O)N[C@@H](CCC(N)=O)C(=O)N[C@@H](CCCNC(=N)N)C(=O)N[C@@H](CCCCN)C(=O)N[C@@H](CCC(=O)O)C(=O)N[C@@H](CO)C(=O)N[C@@H](CCCCN)C(=O)N[C@@H](CCCCN)C(=O)N1CCC[C@H]1C(=O)N1CCC[C@H]1C(=O)N[C@@H](C)C(=O)N[C@@H](CCCCN)C(=O)N[C@@H](CC(C)C)C(=O)N[C@@H](CCC(N)=O)C(=O)N1CCC[C@H]1C(=O)N[C@@H](CCCNC(=N)N)C(=O)O)C(C)C)[C@@H](C)O [Chimeric motilin (D)] (H-FVPIFTYGELQRVQQRKESKKPPAKLQPR-OH; N-terminus and C-terminus assumed) | – | 8.9 min | half-life ([2]; male, iv): 8.9 min |
| CC[C@H](C)[C@H](NC(=O)[C@@H]1CCCN1C(=O)[C@@H](NC(=O)[C@@H](N)Cc1ccccc1)C(C)C)C(=O)N[C@@H](Cc1ccccc1)C(=O)N[C@H](C(=O)N[C@@H](Cc1ccc(O)cc1)C(=O)NCC(=O)N[C@@H](CCC(=O)O)C(=O)N[C@@H](CC(C)C)C(=O)N[C@@H](CCC(N)=O)C(=O)N[C@@H](CCCNC(=N)N)C(=O)N[C@H](C(=O)N[C@@H](CCC(N)=O)C(=O)N[C@@H](CCC(N)=O)C(=O)N[C@@H](CCCNC(=N)N)C(=O)N[C@@H](CCCCN)C(=O)N[C@@H](CCC(=O)O)C(=O)N[C@@H](CO)C(=O)O)C(C)C)[C@@H](C)O [Chimeric motilin (L), FVPIFTYGELQRVQQRKES] (H-FVPIFTYGELQRVQQRKES-OH; N-terminus and C-terminus assumed) | – | 4.89 min | disappearance half-time extending action in vivo compared with native motilin [3]: unable to be confirmed |
| CC[C@H](C)[C@H](NC(=O)[C@@H]1CCCN1C(=O)[C@@H](NC(=O)[C@@H](N)Cc1ccccc1)C(C)C)C(=O)N[C@@H](Cc1ccccc1)C(=O)N[C@H](C(=O)N[C@@H](Cc1ccc(O)cc1)C(=O)NCC(=O)N[C@@H](CCC(=O)O)C(=O)N[C@@H](CC(C)C)C(=O)N[C@@H](CCC(N)=O)C(=O)N[C@@H](CCCNC(=N)N)C(=O)N[C@H](C(=O)N[C@@H](CCC(N)=O)C(=O)N[C@@H](CCC(N)=O)C(=O)N[C@@H](CCCNC(=N)N)C(=O)N[C@@H](CCCCN)C(=O)O)C(C)C)[C@@H](C)O [Chimeric motilin (M), FVPIFTYGELQRVQQRK] (H-FVPIFTYGELQRVQQRK-OH; N-terminus and C-terminus assumed) | – | 2.39 min | disappearance half-time extending action in vivo compared with native motilin [3]: unable to be confirmed |
| CC[C@H](C)[C@H](NC(=O)[C@@H]1CCCN1C(=O)[C@@H](NC(=O)[C@@H](N)Cc1ccccc1)C(C)C)C(=O)N[C@@H](Cc1ccccc1)C(=O)N[C@H](C(=O)N[C@@H](Cc1ccc(O)cc1)C(=O)NCC(=O)N[C@@H](CCC(=O)O)C(=O)N[C@@H](CC(C)C)C(=O)N[C@@H](CCC(N)=O)C(=O)N[C@@H](CCCNC(=N)N)C(=O)N[C@@H](CCSC)C(=O)N[C@@H](CCC(N)=O)C(=O)N[C@@H](CCC(=O)O)C(=O)N[C@@H](CCCCN)C(=O)N[C@@H](CCC(=O)O)C(=O)N[C@@H](CCCNC(=N)N)C(=O)N[C@@H](CC(N)=O)C(=O)N[C@@H](CCCCN)C(=O)NCC(=O)N[C@@H](CCC(N)=O)C(=O)O)[C@@H](C)O [Native Motilin, reference compound] | – | 3.26 min | half-life ([2]; intravenous, male rats, N = 3, read-out: T½ Mean Value): 3.26 min |
| RPQLKAPPKKSEKRQQVCFGLKLDRIGSMSGLGCVQQRKESKKPPAKLQPR (disulfide 18-34) [Chimeric CNP (F)] | 17.4 min | – | – |
| VQQRKESKKPPAKLQPRCFGLKLDRIGSMSGLGCVQQRKESKKPPAKLQPR (disulfide 18-34) [Chimeric CNP (E)] | 18.4 min | – | – |

Reference: patent publication US8551937B2, “Peptide having an extending action for half-life of object peptide in plasma” (priority 2008, dated 2013)
